Source: patent publication US10865207B2, “Compounds for imaging Tau protein aggregates” (AC IMMUNE S.A., priority 2016, dated 2020)
Marks after values point to notes of the source that are not given here.

Key:
[1] = molecular target: Tau (Homo sapiens, UniProt P10636); assay: Competition binding to Tau in human AD brain homogenate with 18F-labeled Tau binder; set-up: High affinity to Tau (grade): key: −: poor; ∘: moderate; +: good; ++: very good; +++: excellent; conditions: for IC50: human AD brain homogenate, determined with non-radioactive fluorine-19 derivatives; on high Tau binding (grade): key: −: poor; ∘: moderate; +: good; ++: very good; +++: excellent
Description: (§1) 20 μg of human Alzheimer disease brain homogenate was incubated with a dilution series of each test compound (1000 to 0.06 nM) in the presence of 800 Bq of ^18F-labeled Tau binder. The samples were shaken at 110 rpm for 45 min at 37° C. Samples were then filtered through GF/B 96 well filter plates and washed twice with 300 μL assay buffer (PBS containing 0.1% BSA and 2% DMSO). Thereafter, filter plates were sealed and a Fuji Film Imaging Plate (BAS-SR2025) was placed on top. The imaging plate was analyzed after overnight exposition using a Fuji Film BAS-5000. Non-specific signal was determined with samples containing ^18F-labeled Tau-reference binder in the presence of assay buffer without brain substrate and competitor. […] The unblocked ^18F-labeled Tau-binder signal was defined as total binding. IC50 values were calculated by Prism V6 (GraphPad) setting total binding to 100%.

[2] = PK studies in healthy mice (dynamic PET); format: in vivo, NMRI mice; set-up: Good brain uptake (grade) / Mouse PK Uptake (grade): key: −: poor; ∘: moderate; +: good; ++: very good; +++: excellent; on Fast washout from healthy brain (grade): key: −: poor; ∘: moderate; +: good; ++: very good; +++: excellent; on Mouse PK De-fluorination (grade): key: −: poor; ∘: moderate; +: good; ++: very good; +++: excellent; on Mouse PK Washout (grade): key: −: poor; ∘: moderate; +: good; ++: very good; +++: excellent
Description: NMRI mice (weight range 25-35 g) were injected intravenously with the ^18F-labeled compounds. Up to 150 μL of 1×PBS solution with 10%-15% EtOH or dilution medium ([…]) containing the ^18F-labeled compound (2-10 MBq) were injected. Anesthesia with isoflurane was induced before injection of the tracer and maintained during the image acquisition period. PET scans were performed using a SIEMENS INVEON small animal PET/CT scanner (Siemens, Knoxville, Tenn.). PET acquisition was started immediately before the radioactive dose was injected into the animal through the tail vein. Images were generated as dynamic scans for 60 minutes.
The peak uptake in the brain was set to 100% and washout curves were generated to evaluate the clearance of the activity from the normal brain (FIG. 2).

[3] = molecular target: T1, MAO A (Mus musculus, UniProt Q64133); assay: MAO A 18F-FEH competition assay in mouse brain homogenate; format: binding; set-up: Low affinity to MAO A (grade), mouse brain homogenate: key to the marks not given beside the values; conditions: for IC50: 18F-FEH competition, fluorine-19 derivatives
T1 construct: from tissue; host or cells: whole mouse brain homogenate
T1 sequence (Q64133 1-526): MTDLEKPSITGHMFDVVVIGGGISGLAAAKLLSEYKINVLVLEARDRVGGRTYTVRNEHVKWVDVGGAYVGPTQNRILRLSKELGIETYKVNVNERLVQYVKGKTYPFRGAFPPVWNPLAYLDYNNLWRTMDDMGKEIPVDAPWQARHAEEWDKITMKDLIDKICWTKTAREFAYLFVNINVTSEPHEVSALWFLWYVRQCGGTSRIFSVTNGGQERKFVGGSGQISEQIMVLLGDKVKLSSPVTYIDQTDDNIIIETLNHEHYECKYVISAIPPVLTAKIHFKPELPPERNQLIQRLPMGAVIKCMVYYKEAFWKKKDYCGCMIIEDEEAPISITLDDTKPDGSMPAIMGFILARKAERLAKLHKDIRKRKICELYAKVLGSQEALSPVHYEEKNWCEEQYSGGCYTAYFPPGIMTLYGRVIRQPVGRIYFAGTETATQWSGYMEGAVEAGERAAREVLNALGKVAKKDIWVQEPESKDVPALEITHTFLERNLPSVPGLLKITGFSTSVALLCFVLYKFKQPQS

[4] = molecular target: T2, MAO A (Homo sapiens, UniProt P21397); assay: MAO A FEH competition assay in human HC brain homogenate; format: binding; set-up: Low affinity to MAO A (grade), HC homogenate: key: −: poor; ∘: moderate; +: good; ++: very good; +++: excellent; conditions: for IC50: human control brain homogenate, FEH competition, fluorine-19 derivatives
T2 construct: 20 μg of human brain homogenate (without AD pathology); from tissue; host or cells: human brain homogenate without AD pathology
T2 sequence (P21397 1-527): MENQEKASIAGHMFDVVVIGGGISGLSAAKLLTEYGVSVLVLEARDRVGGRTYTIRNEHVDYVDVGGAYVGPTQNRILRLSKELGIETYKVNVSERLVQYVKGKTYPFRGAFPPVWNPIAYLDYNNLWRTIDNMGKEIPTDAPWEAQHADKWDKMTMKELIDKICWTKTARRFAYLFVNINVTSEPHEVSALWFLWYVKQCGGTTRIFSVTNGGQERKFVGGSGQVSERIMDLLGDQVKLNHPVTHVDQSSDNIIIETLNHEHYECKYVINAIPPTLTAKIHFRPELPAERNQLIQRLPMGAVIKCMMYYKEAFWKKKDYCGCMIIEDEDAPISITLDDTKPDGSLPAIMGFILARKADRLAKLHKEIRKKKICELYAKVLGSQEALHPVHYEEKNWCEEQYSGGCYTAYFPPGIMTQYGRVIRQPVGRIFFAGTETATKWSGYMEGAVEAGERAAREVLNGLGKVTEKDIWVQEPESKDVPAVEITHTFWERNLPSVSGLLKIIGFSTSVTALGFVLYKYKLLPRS
Description: as §1, with “human” for “human Alzheimer disease”, “homogenate (without AD pathology)” for “homogenate”, “MAO-A binder ([^18F]fluoroethyl harmine, FEH).” for “Tau binder.”, “FEH” for “Tau-reference binder”, “FEH” for “Tau-binder”

Chain of Tau (P10636 623-708 limits assumed): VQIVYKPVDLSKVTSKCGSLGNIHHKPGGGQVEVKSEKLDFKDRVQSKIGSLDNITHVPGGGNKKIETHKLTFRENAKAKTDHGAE

Fc1ncccc1-c1ccc2c(n1)[nH]c1ccncc12 [Compound F-4]
high Tau binding (grade) ([1]; Table 2, fluorine-19 derivatives): +++
IC50 [1]: < 2 nM
Mouse PK De-fluorination (grade) ([2]; Table 2): +++
Mouse PK Uptake (grade) ([2]; Table 2): ++
Mouse PK Washout (grade) ([2]; Table 2): ++
bone uptake in shoulder joint at 60 min (de-fluorination) ([2]; healthy mice, after iv injection): (<0.5% ID/g) ^f
peak uptake in brain (tracer uptake in healthy mice after iv injection) ([2]; healthy mice, iv, PET): (5.8% ID/g)
ratio of uptake peak/30 min (washout from healthy brain) ([2]; healthy mice, Table 1: ratio of uptake at 2 min and 30 min): (22)
IC50 [3]: > 1000 nM
low MAO A binding (grade) ([3]; Table 2, IC50 in mouse brain homogenate): +++
IC50 [4]: 530 nM

[18F]c1ncccc1-c1ccc2c(n1)[nH]c1ccncc12 [Compound ^18F-4]
High affinity to Tau (grade) ([1]; Table 1, IC50 in AD brain homogenate, fluorine-19 derivatives): +++
IC50 [1]: < 2 nM
Fast washout from healthy brain (grade) ([2]; Table 1): +++
Good brain uptake (grade) ([2]; Table 1): ++
Low or minor de-fluorination (grade) ([2]; Table 1): +++
Low retention in healthy brain (grade) ([2]; Table 1): +++
fold faster washout from healthy brain than compound 18F-1 ([2]; mice): 3.2 fold
fold faster washout from healthy brain than compound 18F-2 ([2]; mice): 2.0 fold
fold less long-term retention in healthy brain than compound 18F-1 ([2]; mice): 4 fold
fold less long-term retention in healthy brain than compound 18F-2 ([2]; mice): 3 fold
De-fluorination in mice (in words) ([2]; mouse, in vivo): No de-fluorination
IC50 [3]: 1300 nM
Low affinity to MAO A (grade), mouse brain homogenate ([3]; Table 1): +++
fold higher MAO A IC50 than compound 18F-1 ([3]; whole mouse brain homogenate): 59 fold
fold higher MAO A IC50 than compound 18F-2 ([3]; whole mouse brain homogenate): 2.7 fold
fold higher MAO A IC50 than compound 18F-1 ([4]; HC brain homogenate): 106 fold
fold higher MAO A IC50 than compound 18F-2 ([4]; HC brain homogenate): 5 fold
Low affinity to MAO A (grade), HC homogenate ([4]; Table 1): ++
IC50 [4]: 530 nM
